Key:
[1] = test system: estrogen receptor-α (ER-α) in MCF-7 cells; assay: Western blot analysis of ER-α level in MCF-7 cells; type: cell-based, human; details: MCF-7 cells; for increase in the level of wild type ER-α receptor (MW 70,000): 1-100 μM 1,3cPP
Protocol: Turning to FIG. 1 there are shown Western blot analyses showing the effect of 1,3cPP on the expression level of ER-α. In the ER-α assay, MCF-7 cells were incubated with 1-100 μM 1,3cPP for up to 14 days. The analysis indicates a relative increase in the level of wild type ER-α receptor (MW 70,000) with either an increase in 1,3cPP concentration or time of incubation. On days 6 and 14, a nearly 2-fold and 3-fold increase were observed, respectively (FIGS. 1A, C, D, F). […] This band could be related to one of deleted exons D3-4 (MW 49,000), D4 (MW 54,000), or D7 (MW 51,000) ER-α variants.
(§1) Breast Cancer Cells. The human breast cancer MCF-7 cell line were obtained from Prof. Hadassa Degani, of Weizmann Institute of Science, Rehovot, Israel. The cells were grown as monolayers in high glucose DMEM supplemented with 6% fetal calf serum and combined antibiotics. Human breast cancer T47D cells, clones 8 (ER^loPR^lo) and 11 (ER^+PR^+) were obtained from Prof Iafa Keydar, Tel-Aviv university and were grown in DMEM supplemented with 10% fetakl calf serum antibiotics. K562 erythroleukemia cells were obtained from Dr. Alfa Peled of Weizmann Institute of Science, Rehovot, Israel. These cells were grown in RPMI 1640 containing 10% fetal calf serum and antibiotics. All lines were grown at 37° C. in the presence of 5% CO2. The absence of Mycoplasma contamination was monitored by a Mycotrim TC test (Irvine Scientific, Santa Ana, Calif.) carried out once every 3 months.
For ER-α protein analysis, MCF-7 and T47D cells were cultured in 60×15 mm petri dishes. From the second day of culture onward, the cells were treated with various concentrations of 1,3cPP for up to 14 days. At the end of the incubation period, the medium was aspirated and the cells were washed 3 times with cold (4° C.) PBS. The cells were then gently scraped off using a rubber policeman in 0.25 ml of lysis buffer composed of 50 mM β-glycerophosphate, 1 mM DTT, 1.5 mM EGTA, 1 mM EDTA, 1% (Octylphenoxy)polyethoxyethanol (IGEPAL, Sigma, St. Louis, Mo.), a nonionic detergent, and a cocktail of protease inhibitors, including 1 mM phenylmethylsulfonyl fluoride (PMSF), 1 mM benzamidine, 10 μg/ml aprotinin, 10 μg/ml leupeptin, and 2 μg/ml pepstanin, as well as 1 mM sodium orthovanadate (Sigma, St. Louis, Mo.) as a phosphatase inhibitor. […] The protein concentration in each sample (1.5-4 mg/ml) was determined using the Coomassie Protein Assay (Pierce, Rockford, Ill.) according to the manufacturer's instructions. […] Bound antibodies were detected by horseradish peroxidase-conjugated goat anti-rabbit IgG, (Transduction Laboratories, Lexington, Ky. using the ECL detection method. Band densities were quantified by densitometry (Biorad model GS-690 Imaging densitometer) using Molecular Analyst software.

[2] = test system: progesterone receptor (PR) in MCF-7 cells; assay: Western blot analysis of PR level in MCF-7 cells; type: cell-based, human; details: MCF-7 cells, from 10 μM upwards
Protocol: In an analogous manner, a set of experiments was preformed with MCF-7 cells for determining the level of PR upon incubation with varying concentrations of 1,3-cPP for a period of up to 11 days. Similar to the augmentation observed for ER-α, an increase of up to 2.8 and 2.2 fold expression of the wild type PR (MW 98,000), was observed from 10 μM 1,3-cPP and upwards on days 8 and 11, respecively (FIGS. 3A-D).
as §1
For ER-α protein analysis, MCF-7 and T47D cells were cultured in 60×15 mm petri dishes. From the second day of culture onward, the cells were treated with various concentrations of 1,3cPP for up to 14 days. At the end of the incubation period, the medium was aspirated and the cells were washed 3 times with cold (4° C.) PBS. […] The protein concentration in each sample (1.5-4 mg/ml) was determined using the Coomassie Protein Assay (Pierce, Rockford, Ill.) according to the manufacturer's instructions. […] Bound antibodies were detected by horseradish peroxidase-conjugated goat anti-rabbit IgG, (Transduction Laboratories, Lexington, Ky. using the ECL detection method. Band densities were quantified by densitometry (Biorad model GS-690 Imaging densitometer) using Molecular Analyst software.

[3] = test system: MCF-7 cells; assay: Anti-tumor assay, MCF-7 tumors in athymic CD-1 mice; type: in vivo
Protocol: To test this possibility, we followed the procedure of Kurokawa et al. Female athymic outbred CD-1 mice were implanted with a slow release estradiol tablet and injected intra-fat-pad (i.f.p.) in the lower right abdomen 3×10^6 viable MCF-7 cells (see Materials and Methods). Twelve days later, when the tumors became palpable, mice were randomly allocated into two groups, each with six mice. The control group was injected with PBS i.p. and the treatment group was injected with 0.5 mg 1,3cPP dissolved in PBS i.p. in the lower left abdomen on day 1,3,6, and 8. Tumor size was then measured 2-3 times a week. In the control group, the tumors grew continuously and reached an average size of >1250 mm^3. The origin of the large variation in tumor size was due to one mouse with a relatively small tumor in this group.
Female athymic outbred CD-1 mice 12 weeks of age were obtained from the animal breeding center of our Institute. Animals were maintained and treated according to “Principles of laboratory animal care”, (NIH publication no. 85-23) under the supervision of the Council for Experiments on animals, of our Institute. Mice were anesthetized and implanted subcutaneously with a 0.25 mg, 21-day release 17β-estradiol pellet (Innovative Research of America, Sarasota, Fla.) in the dorsal space and injected intra-fat-pad (i.f.p.) in the lower right abdomen with 3×10^6 MCF-7 cells. Twelve days later, when the tumors became palpable, mice were randomly allocated into two groups, each with 6 mice. The control group was injected with PBS and the treatment group was injected with 0.5 mg 1,3cPP in PBS i.p. in the lower left abdomen on day 1,3,6, and 8. Tumor diameters were serially measured with calipers assuming a hemiellipsoid shape, where volume=[…]×(length/2)×(width/2)×(thickness/2).

[4] = 0.5 mg i.p. on day 1,3,6 and 8, athymic CD-1 mice

O=P1(O)OCCCO1 [1,3-cPP, 1,3-cyclic propanediol phosphate]
increase in the level of wild type ER-α receptor (MW 70,000) ([1]; day 6, Western blot densitometry): ~2 fold | increase in the level of wild type ER-α receptor (MW 70,000) ([1]; day 14, Western blot densitometry): ~3 fold | increase in the intensity of a ER variant with an approximate MW of 50,000 ([1]; day 11, Western blot): 5 fold | increase in expression of the wild type PR (MW 98,000) ([2]; day 8): up to 2.8 fold | increase in expression of the wild type PR (MW 98,000) ([2]; day 11): ≤ 2.2 fold | changes in appearance, body weight or behavior upon injection [3, 4]: no changes in appearance, body weight or behavior | toxic effects during the course of the experiment [3, 4]: No observable toxic effects | tumor size, treatment versus control group ([3]; 0.5 mg i.p. on day 1,3,6 and 8, day 36 (P=0.032) and day 43 (P=0.032), MCF-7 tumors in athymic CD-1 mice): significant difference
